Test results reported in paper PMC6328932, “Procaspase activating compound 1 controls tetracycline repressor-regulated gene expression system” (Bioscience Reports, 2019).

B1: tetO (dsDNA)
DNA 1: CCTAATTTTTGTTGACACTCTATCATTGATAGAGTTATTTTACCACTC
DNA 2: GAGTGGTAAAATAACTCTATCAATGATAGAGTGTCAACAAAAATTAGG

How the values were obtained:
[1] = biological target: TetR (TetR(B), tetracycline repressor) (Escherichia coli, UniProt P04483); assay: SPR, TetR immobilised on CMDH chip by EDC/NHS coupling; type: binding
[2] = biological target: TetR(B) (Escherichia coli? (TetR(B) cDNA …, UniProt P04483 1-207)); assay: EMSA; complex appears from 0.5 uM TetR with 0.5 uM tetO; no Dox; EMSA: 20 mM Tris-HCl pH 8.0, 50 mM NaCl, 1 mM MgCl2, 0.1 mM DTT, 15 min at room temperature; 8% PAGE in 90 mM Tris, 90 mM boric acid, 5 mM MgCl2; settings: protein: recombinant; (cloned NdeI-XhoI; Ni-NTA purified); chain copies: 2; label: none (ethidium bromide stain); blunt
Chain of TetR(B) (Escherichia coli? (P04483 whole entry): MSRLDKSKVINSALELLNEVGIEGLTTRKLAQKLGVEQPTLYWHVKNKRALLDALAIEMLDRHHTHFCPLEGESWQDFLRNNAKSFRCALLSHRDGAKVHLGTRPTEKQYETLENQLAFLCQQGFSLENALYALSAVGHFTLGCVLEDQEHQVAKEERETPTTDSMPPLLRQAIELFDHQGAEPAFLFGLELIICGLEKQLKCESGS

Chain of TetR (TetR(B), tetracycline repressor) (P04483 whole entry, looked up): as the sequence (P04483 whole entry) above

| Molecule | Kd [1] [µM] | binding result [2] |
| --- | --- | --- |
| C=CCc1cccc(C=NNC(=O)CN2CCN(Cc3ccccc3)CC2)c1O [PAC-1] | 260 | – |
| B1 | – | binds |
